Assay results published in patent publication US9346795B2, “Substituted sulfonamides useful as antiapoptotic Bcl inhibitors” (Bristol-Myers Squibb Company, priority 2011, dated 2016).
pIC50: −log10 of the molar value.

Key:
Bcl-2 = Bcl-2 (Homo sapiens (Human), UniProt P10415); assay: Bcl-2/Bim Fluorescence Polarization Assay (FPA); format: binding
Bcl-xL = Bcl-xL (Homo sapiens (Human), UniProt Q07817); assay: Bcl-xL/Bim Fluorescence Resonance Energy Transfer Assay (FRET); format: binding
Procedure, shortened: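 Biotin-Bcl-xL was incubated with Bim and compound at eleven concentrations for 60 min at room temperature. Streptavidin-terbium detection was then added for 30 min in the dark, and FRET was read. IC50 values were obtained by non-linear regression.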

Bcl-xL, sequence (Q07817 whole entry): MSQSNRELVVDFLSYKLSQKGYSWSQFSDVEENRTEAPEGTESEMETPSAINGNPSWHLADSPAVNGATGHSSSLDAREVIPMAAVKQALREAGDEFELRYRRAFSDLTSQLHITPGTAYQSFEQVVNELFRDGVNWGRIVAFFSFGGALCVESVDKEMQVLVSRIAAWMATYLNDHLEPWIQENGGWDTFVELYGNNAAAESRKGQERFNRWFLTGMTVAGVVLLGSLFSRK
Bcl-2, sequence (P10415 whole entry): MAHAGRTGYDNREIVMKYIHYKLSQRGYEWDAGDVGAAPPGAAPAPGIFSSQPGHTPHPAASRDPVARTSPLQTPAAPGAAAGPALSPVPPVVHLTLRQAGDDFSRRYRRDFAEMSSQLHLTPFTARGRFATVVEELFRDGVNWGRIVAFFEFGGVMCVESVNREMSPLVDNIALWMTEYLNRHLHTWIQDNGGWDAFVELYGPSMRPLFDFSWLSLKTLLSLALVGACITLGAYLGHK

Row | SMILES | pIC50 (Bcl-2) | pIC50 (Bcl-xL)
1 | CCCCN(CCC(=O)NCCN1CCN(C)CC1)C(=O)c1nn(-c2ccc(C(=O)NS(=O)(=O)c3ccc4ccccc4c3)cc2C(=O)N2CCc3ccccc3C2)c(C)c1Cl [Example 158, N-Butyl-4-chloro-5-methyl-N-(3-(2-(4-methylpiperazin-1-yl)ethylamino)-3-oxopropyl)-1-(4-(naphthalen-2-ylsulfonylcarbamoyl)-2-(1,2,3,4-tetrahydroisoquinoline-2-carbonyl)phenyl)-1H-pyrazole-3-carboxamide] | 7.15 | 7.70
2 | CCCCN(CCCC)C(=O)c1cccc(-c2ccc(C(=O)NS(=O)(=O)c3ccc4ccccc4c3)cc2C(=O)N2CCc3ccccc3C2)n1 [Example 286, N,N-Dibutyl-6-(4-(naphthalen-2-ylsulfonylcarbamoyl)-2-(1,2,3,4-tetrahydroisoquinoline-2-carbonyl)phenyl)picolinamide] | 6.22 | 7.15
3 | CCCCN(CCC(=O)NCCN1CCN(C)CC1)C(=O)c1nn(-c2ccc(C(=O)NS(=O)(=O)c3ccc4c(c3)CCN4Cc3ccc(Cl)c(Cl)c3)cc2C(=O)N2CCc3ccccc3C2)c(C)c1Cl [Example 200, N-butyl-4-chloro-1-(4-(1-(3,4-dichlorobenzyl)indolin-5-ylsulfonylcarbamoyl)-2-(1,2,3,4-tetrahydroisoquinoline-2-carbonyl)phenyl)-5-methyl-N-(3-(2-(4-methylpiperazin-1-yl)ethylamino)-3-oxopropyl)-1H-pyrazole-3-carboxamide] | 6.00 | 6.89
4 | CCCCN(C(=O)c1nn(-c2ccc(C(=O)NS(=O)(=O)c3ccc4c(Cl)ccc(Br)c4c3)cc2C(=O)N2CCc3ccccc3C2)c(C)c1Cl)c1cccc(-c2ccc(Cl)cc2)c1 [Example 217, 1-(4-(8-bromo-5-chloronaphthalen-2-ylsulfonylcarbamoyl)-2-(1,2,3,4-tetrahydroisoquinoline-2-carbonyl)phenyl)-N-butyl-4-chloro-N-(4′-chlorobiphenyl-3-yl)-5-methyl-1H-pyrazole-3-carboxamide] | 8.00 | 7.15
5 | CCCN(CCC)c1nn(-c2ccc(C(=O)NS(=O)(=O)c3ccc4c(Cl)ccc(Br)c4c3)cc2C(=O)N2Cc3ccccc3C[C@H]2CO)c(C)c1Cl [Example 207, N-(8-bromo-5-chloronaphthalen-2-ylsulfonyl)-4-(4-chloro-3-(dipropylamino)-5-methyl-1H-pyrazol-1-yl)-3-((S)-3-(hydroxymethyl)-1,2,3,4-tetrahydroisoquinoline-2-carbonyl)benzamide] | 8.11 | 7.40
6 | CCCN(CCC)c1ncc(Cl)c(-c2ccc(C(=O)NS(=O)(=O)c3ccc4cccc(Cl)c4c3)cc2C(=O)N2Cc3ccccc3C[C@H]2CO)n1 [Example 328, 4-(5-Chloro-2-(dipropylamino)pyrimidin-4-yl)-N-(8-chloronaphthalen-2-ylsulfonyl)-3-((S)-3-(hydroxymethyl)-1,2,3,4-tetrahydroisoquinoline-2-carbonyl)benzamide] | 8.06 | 8.00
7 | CCCCc1c(-c2ccc(C(=O)NS(=O)(=O)c3ccc4ccccc4c3)cc2C(=O)N2CCc3ccccc3C2)c(CO)nn1-c1ccc(CCO)cc1 [Example 245, 4-(5-butyl-1-(4-(2-hydroxyethyl)phenyl)-3-(hydroxymethyl)-1H-pyrazol-4-yl)-N-(naphthalen-2-ylsulfonyl)-3-(1,2,3,4-tetrahydroisoquinoline-2-carbonyl)benzamide] | 7.70 | 8.21
8 | CCCCN(CCCC)C(=O)c1nn(-c2ccc(C(=O)NS(=O)(=O)c3ccc4ccccc4c3)cc2C(=O)N2Cc3ccccc3C[C@@H]2C(=O)O)c(C)c1Cl [Example 93, (3R)-2-(2-(4-Chloro-3-(dibutylcarbamoyl)-5-methyl-1H-pyrazol-1-yl)-5-(naphthalen-2-ylsulfonylcarbamoyl)benzoyl)-1,2,3,4-tetrahydroisoquinoline-3-carboxylic acid] | 5.78 | 6.70
9 | CCCCN(CCCC)c1ncc(Cl)c(-c2ccc(C(=O)NS(=O)(=O)c3ccc4ccccc4c3)cc2C(=O)N2Cc3ccccc3C[C@H]2CO)n1 [Example 315, 4-(5-Chloro-2-(dibutylamino)pyrimidin-4-yl)-3-((S)-3-(hydroxymethyl)-1,2,3,4-tetrahydroisoquinoline-2-carbonyl)-N-(naphthalen-2-ylsulfonyl)benzamide] | 7.22 | 7.10
10 | CCCCN(CCCC)C(=O)c1nn(-c2ccc(C(=O)NS(=O)(=O)c3ccc4ccc(C(=O)N5CCN(C)CC5)cc4c3)cc2C(=O)N2CCc3ccccc3C2)c(C)c1Cl [Example 46, N,N-Dibutyl-4-chloro-5-methyl-1-(4-(7-(4-methylpiperazine-1-carbonyl)naphthalen-2-ylsulfonylcarbamoyl)-2-(1,2,3,4-tetrahydroisoquinoline-2-carbonyl)phenyl)-1H-pyrazole-3-carboxamide] | 7.05 | 7.40
11 | CCCCN(CCCC)C(=O)c1nn(-c2ccc(C(=O)NS(=O)(=O)c3ccc4c(ccn4CCCN4CCOCC4)c3)cc2C(=O)N2CCc3ccccc3C2)c(C)c1Cl [Example 82, N,N-dibutyl-4-chloro-5-methyl-1-(4-(1-(3-morpholinopropyl)-1H-indol-5-ylsulfonylcarbamoyl)-2-(1,2,3,4-tetrahydroisoquinoline-2-carbonyl)phenyl)-1H-pyrazole-3-carboxamide] | 6.41 | 7.52
12 | CCCCc1c(-c2ccc(C(=O)NS(=O)(=O)c3ccc4ccccc4c3)cc2C(=O)N2CCc3ccccc3C2)c(C(=O)OCC)nn1-c1ccc(Oc2ccccc2)cc1 [Example 228, Ethyl 5-butyl-4-(4-(naphthalen-2-ylsulfonylcarbamoyl)-2-(1,2,3,4-tetrahydroisoquinoline-2-carbonyl)phenyl)-1-(4-phenoxyphenyl)-1H-pyrazole-3-carboxylate] | 7.00 | 7.22
13 | CCCCN(CCc1ccc(Cl)c(Cl)c1)C(=O)c1nn(-c2ccc(C(=O)NS(=O)(=O)c3ccc4ccccc4c3)cc2C(=O)N2CCc3ccccc3C2)c(C)c1Cl [Example 127, N-butyl-4-chloro-N-(3,4-dichlorophenethyl)-5-methyl-1-(4-(naphthalen-2-ylsulfonylcarbamoyl)-2-(1,2,3,4-tetrahydroisoquinoline-2-carbonyl)phenyl)-1H-pyrazole-3-carboxamide] | 7.52 | 6.66
14 | CCCCN(CCCC)C(=O)c1nn(-c2ccc(C(=O)NS(=O)(=O)c3ccc4ccc(C(=O)N(C)C)cc4c3)cc2C(=O)N2CCc3ccccc3C2)c(C)c1Cl [Example 48, N,N-Dibutyl-4-chloro-1-(4-(7-(dimethylcarbamoyl)naphthalen-2-ylsulfonylcarbamoyl)-2-(1,2,3,4-tetrahydroisoquinoline-2-carbonyl)phenyl)-5-methyl-1H-pyrazole-3-carboxamide] | 6.82 | 7.10
15 | CCCCN(CCCC(F)(F)F)C(=O)c1nn(-c2ccc(C(=O)NS(=O)(=O)c3ccc4ccccc4c3)cc2C(=O)N2CCc3ccccc3C2)c(C)c1Cl [Example 128, N-butyl-4-chloro-5-methyl-1-(4-(naphthalen-2-ylsulfonylcarbamoyl)-2-(1,2,3,4-tetrahydroisoquinoline-2-carbonyl)phenyl)-N-(4,4,4-trifluorobutyl)-1H-pyrazole-3-carboxamide] | 6.96 | 7.10
